Experimental data: patent US8680065B2, “Oligonucleotides of human endogenous retrovirus 9 (ERV-9) long terminal repeat (LTR) and methods of use” (The United States of America, as represented by the …, priority 2008, dated 2014)

How the values were obtained:
Format in all cases: cell-based, human
[1] = tested on: LNcaP cells (a prostate cancer cell line); test: Cancer cell proliferation, oligonucleotide in LIPOFECTAMINE, 48 hours, direct cell counting; settings: oligonucleotide 10, 20 or 30 μg/ml
[2] = tested on: HepG2 cells; test: Cancer cell proliferation, oligonucleotide in combination with VP16, 48 hours; settings: oligonucleotide 15 μg/ml with VP16 30 ng/ml and 50 ng/ml, P<0.05
Method: (§1) FIG. 11 is a graph showing proliferation of HepG2 cells treated with ERV-9 U3 sense or antisense oligonucleotide (SEQ ID NOs: 1 and 2, respectively), in combination with VP16. Cells (4×10^4) were treated with oligonucleotide (15 μg/ml) alone or in combination with the concentrations of VP16 shown for 48 hours.
(§2) To test the effect of treating cancer cells with the combination of ERV-9 U3 oligonucleotide and VP16, six different cancer cell lines were analyzed: HT1080, (FIG. 7); MDA-231 (FIG. 8); K562 (FIG. 9); LNcaP (FIG. 10); HepG2 (FIG. 11); and MCF-7 (FIG. 12). Cells (4×10^4) were treated with 15 μg/ml ERV-9 U3 sense (SEQ ID NO: 1) or antisense (SEQ ID NO: 2) oligonucleotide alone or in combination with VP16 at a concentration of 30 ng/ml or 50 ng/ml. After 48 hours, cell proliferation was assessed by direct cell counting. Cell proliferation levels were expressed relative to GFP oligonucleotide control in the absence of VP16.

[3] = tested on: MDA-231 cells (a breast cancer cell line); test: Cancer cell proliferation, oligonucleotide in LIPOFECTAMINE, 48 hours, direct cell counting; settings: oligonucleotide 10, 20 or 30 μg/ml, P<0.05
[4] = tested on: MCF-7 cells (a breast cancer cell line); test: as above; settings: P<0.05; for cell proliferation compared with G3139, GRN163 and MDM2 antisense oligonucleotides: oligonucleotide 30 μg/ml; for cell proliferation relative to GFP oligonucleotide: oligonucleotide 10, 20 or 30 μg/ml
Method: (§3) FIG. 6 is a graph showing the effect of sense and antisense ERV-9 U3 oligonucleotides (SEQ ID NOs: 1 and 2, respectively) on proliferation of MCF-7 cells (a breast cancer cell line). Cells (4×10^4) were treated with ERV-9 U3 sense or antisense oligonucleotide formulated in LIPOFECTAMINE™ at the concentrations shown for 48 hours.
To test the effect of the sense and antisense ERV-9 U3 oligonucleotides on proliferation of cancer cells, six different cancer cell lines were selected for transfection studies: HT1080, fibrosarcoma cells (FIG. 1); MDA-231, breast cancer cells (FIG. 2); K562, myelogenous leukemia cells (FIG. 3); LNcaP, prostate cancer cells (FIG. 4); HepG2, hepatocellular carcinoma cells (FIG. 5); and MCF-7, breast cancer cells (FIG. 6). Cells (4×10^4) were treated with ERV-9 U3 sense or antisense oligonucleotide formulated in LIPOFECTAMINE™ at an oligonucleotide concentration of 10, 20 or 30 μg/ml for 48 hours. Green fluorescent protein (GFP) sense oligonucleotide ([…]; SEQ ID NO: 3) was used as a control to measure the non-specific cytotoxicity of phosphorothioate-based oligonucleotides. Antisense oligonucleotides specific for Bcl-2 (G3139; TCTCCCAGCGTGCGCCAT; SEQ ID NO: 4), telomerase (GRN163; TAGGGTTAGACAA; SEQ ID NO: 5), and MDM2 ([…]; SEQ ID NO: 6) were also evaluated. […] After 48 hours of oligonucleotide treatment, cell proliferation was assessed by direct cell counting. Cell proliferation levels were expressed relative to cells transfected with 10 μg/ml GFP control oligonucleotide.

[5] = tested on: HT1080 cells; test: Cancer cell proliferation, U3 and U5 oligonucleotides, 72 hours; settings: 20 μg/ml
Method: FIG. 16 is a graph showing the effect of sense and antisense ERV-9 U3 (SEQ ID NOs: 1, 2, 7, 8, 9, and 10) and U5 (SEQ ID NOs: 11 and 12) oligonucleotides on proliferation of HT1080 cells. Cells (4×10^4) were treated with oligonucleotide formulated in LIPOFECTAMINE™ at a concentration of 20 μg/ml for 72 hours. GFP sense oligonucleotide was used as a control to measure the non-specific cytotoxicity of phosphorothioate-based oligonucleotides. Antisense oligonucleotides G3139, GRN163, and MDM2 were also evaluated. Cell proliferation levels were expressed relative to cells transfected with GFP oligonucleotide. All U3 and U5 sense and antisense oligonucleotides inhibited cell proliferation to a greater extent that GFP control. In addition, with the exception of the U5 sense oligonucleotide, all U3 and U5 oligonucleotides inhibited cell proliferation better than the G3139, GRN163 and MDM2 antisense oligonucleotides.
HT1080 or MDA-231 cells (4×10^4 cells) were treated with ERV-9 LTR (U3 or U5) sense or antisense oligonucleotides formulated in LIPOFECTAMINE™ at a concentration of 20 μg/ml for 72 hours. GFP sense oligonucleotide was used as a control to measure the non-specific cytotoxicity of phosphorothioates-based oligonucleotides. Relative cell proliferation levels were expressed as percentage of GFP oligonucleotide transfected control. The results are shown in FIG. 16 (HT1080 cells) and FIG. 17 (MDA-231 cells).

[6] = tested on: MDA-231 cells; test: Cancer cell proliferation, oligonucleotide in combination with VP16, 48 hours; settings: oligonucleotide 15 μg/ml with VP16 30 ng/ml and 50 ng/ml, P<0.05
[7] = tested on: LNcaP cells; test: as above; settings: oligonucleotide 15 μg/ml with VP16 30 ng/ml and 50 ng/ml
Method: as §1, with “10” for “11”, “LNcaP” for “HepG2”
as §2

[8] = tested on: HepG2 cells (a hepatocellular carcinoma cell line); test: Cancer cell proliferation, oligonucleotide in LIPOFECTAMINE, 48 hours, direct cell counting; settings: oligonucleotide 10, 20 or 30 μg/ml, P<0.05
Method: as §3, with “5” for “6”, “HepG2” for “MCF-7”, “hepatocellular carcinoma” for “breast cancer”
To test the effect of the sense and antisense ERV-9 U3 oligonucleotides on proliferation of cancer cells, six different cancer cell lines were selected for transfection studies: HT1080, fibrosarcoma cells (FIG. 1); MDA-231, breast cancer cells (FIG. 2); K562, myelogenous leukemia cells (FIG. 3); LNcaP, prostate cancer cells (FIG. 4); HepG2, hepatocellular carcinoma cells (FIG. 5); and MCF-7, breast cancer cells (FIG. 6). Cells (4×10^4) were treated with ERV-9 U3 sense or antisense oligonucleotide formulated in LIPOFECTAMINE™ at an oligonucleotide concentration of 10, 20 or 30 μg/ml for 48 hours. […] Antisense oligonucleotides specific for Bcl-2 (G3139; TCTCCCAGCGTGCGCCAT; SEQ ID NO: 4), telomerase (GRN163; TAGGGTTAGACAA; SEQ ID NO: 5), and MDM2 ([…]; SEQ ID NO: 6) were also evaluated. […] After 48 hours of oligonucleotide treatment, cell proliferation was assessed by direct cell counting. […]

[9] = tested on: MCF-7 cells; test: Cancer cell proliferation, oligonucleotide in combination with VP16, 48 hours; settings: oligonucleotide 15 μg/ml with VP16 30 ng/ml and 50 ng/ml, P<0.05
Method: as §1, with “12” for “11”, “MCF-7” for “HepG2”
as §2

## U3S: ERV-9 LTR U3 sense oligonucleotide CTCAAGGTTTGTAAACACACCAATCAG, phosphorothioate internucleoside linkages at each position (all phosphorothioate, sugars by position and methylation of C not given here) [Oligo U3S]
[1]
  cell proliferation relative to GFP oligonucleotide: inhibited cell proliferation better than GFP control oligonucleotide at all three oligonucleotide concentrations
[2]
  cell proliferation relative to GFP oligonucleotide control: inhibited cell proliferation better than GFP control and G3139, GRN163 and MDM2 antisense oligonucleotides
[3]
  cell proliferation relative to GFP oligonucleotide: inhibited cell proliferation better than GFP control oligonucleotide at all three oligonucleotide concentrations
[4]
  cell proliferation compared with G3139, GRN163 and MDM2 antisense oligonucleotides: inhibited proliferation better than G3139, GRN163 and MDM2 antisense oligonucleotides
  cell proliferation relative to GFP oligonucleotide: inhibited cell proliferation better than GFP control oligonucleotide at all three concentrations
[5]
  cell proliferation relative to GFP oligonucleotide transfected control: inhibited cell proliferation better than G3139, GRN163 and MDM2 oligonucleotides
[6]
  cell proliferation relative to GFP oligonucleotide control: inhibited cell proliferation better than GFP oligonucleotide
[7]
  cell proliferation relative to GFP oligonucleotide control: inhibited cell proliferation better than GFP oligonucleotide
[8]
  cell proliferation relative to GFP oligonucleotide: inhibited cell proliferation better than GFP control and G3139, GRN163 and MDM2 antisense oligonucleotides at all three concentration levels
[9]
  cell proliferation relative to GFP oligonucleotide control: inhibited cell proliferation better than GFP control and G3139, GRN163 and MDM2 antisense oligonucleotides

## U3AS: ERV-9 LTR U3 antisense oligonucleotide CTGATTGGTGTGTTTACAAACCTTGAG, phosphorothioate internucleoside linkages at each position (all phosphorothioate, sugars by position and methylation of C not given here) [Oligo U3AS]
[1]
  cell proliferation relative to GFP oligonucleotide: inhibited cell proliferation better than GFP control oligonucleotide at all three oligonucleotide concentrations
[2]
  cell proliferation relative to GFP oligonucleotide control: inhibited cell proliferation better than GFP control and G3139, GRN163 and MDM2 antisense oligonucleotides
[3]
  cell proliferation relative to GFP oligonucleotide: inhibited cell proliferation better than GFP control oligonucleotide at all three oligonucleotide concentrations
[4]
  cell proliferation compared with G3139, GRN163 and MDM2 antisense oligonucleotides: inhibited proliferation better than G3139, GRN163 and MDM2 antisense oligonucleotides
  cell proliferation relative to GFP oligonucleotide: inhibited cell proliferation better than GFP control oligonucleotide at all three concentrations
[5]
  cell proliferation relative to GFP oligonucleotide transfected control: inhibited cell proliferation better than G3139, GRN163 and MDM2 oligonucleotides
[6]
  cell proliferation relative to GFP oligonucleotide control: inhibited cell proliferation better than GFP control and G3139, GRN163 and MDM2 antisense oligonucleotides
[7]
  cell proliferation relative to GFP oligonucleotide control: inhibited cell proliferation better than GFP oligonucleotide
[8]
  cell proliferation relative to GFP oligonucleotide: inhibited cell proliferation better than GFP control and G3139, GRN163 and MDM2 antisense oligonucleotides at all three concentration levels
[9]
  cell proliferation relative to GFP oligonucleotide control: inhibited cell proliferation better than GFP control and G3139, GRN163 and MDM2 antisense oligonucleotides
